Test results as given in the supplement of paper PMC12317010.
Where a name gives a salt, the structure may show the parent alone.

Test: collision cross section in nitrogen (drift tube, single-field); higher = larger gas-phase ion size
[1] = ion type: [M+H], ion source: ESI, ion mode: Positive
[2] = ion type: [M-H], ion source: ESI, ion mode: Negative
[3] = ion type: [M+H], ion source: APCI, ion mode: Positive
[4] = ion type: [M+], ion source: APCI, ion mode: Positive
[5] = ion type: [M+Na], ion source: ESI, ion mode: Positive
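Further: chemical standards at 10 µM analysed by drift tube IMS-QTOF MS in about 3.95 torr nitrogen, mean of duplicate injections differing ≤1%, mass error below 10 ppm.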

Row | collision cross section in nitrogen [1] | collision cross section in nitrogen [2] | collision cross section in nitrogen [3] | collision cross section in nitrogen [4] | collision cross section in nitrogen [5] | SMILES
1 | 228.8 Å² | 249.7 Å² | 228.1 Å² | – | 242.2 Å² | O=C(O)c1ccc2c(c1)nc(C(=O)NC1CCN(C3CC3)CC1)n2Cc1cc(-c2ccc(Cl)s2)on1 [AVE3247]
2 | 197.4 Å² | 203 Å² | 198 Å² | – | 205.8 Å² | CC[C@H](NC(=O)c1cc(F)ccc1NS(=O)(=O)c1cccc2cccnc12)c1ccccc1 [AVE3295]
3 | 192.4 Å² | – | 192.1 Å² | – | – | NCc1cccc(C2CCN(C(=O)c3ccc(C#Cc4ccccc4F)o3)CC2)c1 [AVE5638]
4 | 267.7 Å² | 269.8 Å² | 268 Å² | – | 276.4 Å² | CCOC(=O)O[C@H](C)OC(=O)c1ccc2c(c1)cc(C(=O)NC1CCN(C(C)C)CC1)n2Cc1cc(-c2ccc(Cl)s2)on1 [AVE6324]
5 | – | – | 197.2 Å² | – | 204.9 Å² | CCCOc1sc(C(=O)N2CCC(c3cc(CN)ccc3F)CC2)c(C)c1Br [AVE8923]
6 | 210.8 Å² | 216.1 Å² | 210.6 Å² | – | 223.5 Å² | O=C(O)c1ccccc1-n1cc(C(=O)O)c(=O)c2cc(Nc3c(F)cc(F)cc3Cl)c(Cl)cc21 [AVE9423]
7 | – | 125.1 Å² | – | – | – | CC1=CC(=O)NS(=O)(=O)O1 [Acesulfame potassium]
8 | – | 132.5 Å² | – | – | – | CC(=O)Nc1ccc(O)cc1 [Acetaminophen]
9 | – | 137.8 Å² | – | – | – | CC(=O)Nc1nnc(S(N)(=O)=O)s1 [Acetazolamide]
10 | – | 138 Å² | – | – | – | CC(=O)CC(=O)Nc1ccccc1 [Acetoacetanilide]
11 | – | 172.3 Å² | – | – | – | CCOCN(C(=O)CS(=O)(=O)O)c1c(C)cccc1CC [Acetochlor ESA]
12 | – | – | – | – | 207 Å² | CCCCOC(=O)CC(CC(=O)OCCCC)(OC(C)=O)C(=O)OCCCC [Acetyl tributyl citrate]
13 | 143.9 Å² | – | – | – | – | CC(=O)O[C@H](CC(=O)[O-])C[N+](C)(C)C [Acetyl-L-carnitine hydrochloride]
14 | 190.2 Å² | 191.1 Å² | – | – | – | Nc1c(S(=O)(=O)O)cc(Nc2ccccc2)c2c1C(=O)c1ccccc1C2=O [Acid Blue 25]
15 | 191.7 Å² | 195.6 Å² | – | – | – | Nc1ccc2cc(S(=O)(=O)O)cc(O)c2c1N=Nc1ccccc1C(F)(F)F [Acid Red 337]
16 | – | – | – | – | 145.9 Å² | C=CC(=O)OCCOC(=O)CCC(=O)O [Acryloyloxyethyl succinate]
17 | 143.7 Å² | – | – | – | 143.5 Å² | CC(=O)Nc1ccc(CC(=O)O)cc1 [Actarit]
18 | 125.2 Å² | 120.9 Å² | 124.4 Å² | – | – | Nc1ncnc2[nH]cnc12 [Adenine]
19 | 166 Å² | – | 166.9 Å² | 160.4 Å² | – | CCCSc1ccc2[nH]c(NC(=O)OC)nc2c1 [Albendazole]
20 | – | 157.1 Å² | – | – | – | O=C1c2cccc(O)c2C(=O)c2c(O)cc(CO)cc21 [Aloe-emodin]
21 | – | 199.5 Å² | – | – | – | Nc1nc(N)c2nc(CNc3ccc(C(=O)N[C@@H](CCC(=O)O)C(=O)O)cc3)cnc2n1 [Aminopterin]
22 | 224.2 Å² | – | 223.8 Å² | 224 Å² | 231.6 Å² | CCCCc1oc2ccccc2c1C(=O)c1cc(I)c(OCCN(CC)CC)c(I)c1 [Amiodarone hydrochloride]
23 | 167.5 Å² | – | 166.8 Å² | – | 175.7 Å² | CN(C)CCC=C1c2ccccc2CCc2ccccc21 [Amitriptyline hydrochloride]

Further lines, the molecule ahead of its results:

Row | SMILES | collision cross section in nitrogen [1] | collision cross section in nitrogen [2] | collision cross section in nitrogen [3] | collision cross section in nitrogen [4] | collision cross section in nitrogen [5]
24 | O=S(=O)(O)c1ccc(O)c2ncccc12 [8-Hydroxyquinoline-5-sulfonic acid hydrate (1:x)] | 146.7 Å² | 142.4 Å² | – | – | –
25 | Nc1c2ccccc2nc2ccccc12 [9-Aminoacridine hydrochloride monohydrate] | 138.9 Å² | 139.3 Å² | 138.8 Å² | 139 Å² | –
26 | CCn1c2ccccc2c2cc([N+](=O)[O-])ccc21 [9-Ethyl-3-nitro-9H-carbazole] | 152 Å² | – | – | – | –
27 | O=[N+]([O-])c1c2ccccc2cc2ccccc12 [9-Nitroanthracene] | – | 145.1 Å² | 145.5 Å² | – | –
28 | Oc1cc2ccccc2c2ccccc12 [9-Phenanthrol] | – | 140.7 Å² | – | – | –
29 | CC(C)CCCCCCCCCCCCCCC(=O)O [16-Methylheptadecanoic acid] | – | 177.5 Å² | – | – | –
30 | CCCCCC(=O)O[C@]1(C(C)=O)CC[C@H]2[C@@H]3CCC4=CC(=O)CC[C@]4(C)[C@H]3CC[C@@]21C [17-((1-Oxohexyl)oxy)pregn-4-ene-3,20-dione] | – | 212.9 Å² | – | – | 225.6 Å²
31 | C[C@]12CCC(=O)C=C1CC[C@@H]1[C@@H]2CC[C@@]2(C)[C@H]1CC[C@]2(C)O [17-Methyltestosterone] | 177.6 Å² | – | – | – | –
32 | C#C[C@]1(O)CC[C@H]2[C@@H]3CCc4cc(O)ccc4[C@H]3CC[C@@]21C [17alpha-Ethinylestradiol] | – | 182.3 Å² | – | – | –
33 | CC(=O)[C@@]1(O)CC[C@H]2[C@@H]3CCC4=CC(=O)CC[C@]4(C)[C@H]3CC[C@@]21C [17alpha-Hydroxyprogesterone] | – | 184.4 Å² | – | – | –
34 | C[C@]12C=CC3=C4CCC(=O)C=C4CC[C@H]3[C@@H]1CC[C@@H]2O [17beta-Trenbolone] | 166.4 Å² | 168.7 Å² | 166.2 Å² | – | 192.3 Å²
35 | C[C@]12CC[C@H]3[C@@H](CCC4=CC(=O)CC[C@@]43C)[C@@H]1CC[C@@H]2C(=O)CO [21-Hydroxyprogesterone] | 185.7 Å² | 186.5 Å² | – | – | –
36 | C/C=C/C=C/CO [(2E,4E)-Hexa-2,4-dien-1-ol] | – | – | – | 117.4 Å² | –
37 | CNC[C@H](O)[C@@H](O)[C@H](O)[C@H](O)CO [(2R,3R,4R,5S)-6-(Methylamino)hexane-1,2,3,4,5-pentol] | 141.3 Å² | 140.4 Å² | 141 Å² | – | 147.7 Å²
38 | CC(Cc1ccc(C(C)(C)C)cc1)CN1C[C@@H](C)O[C@@H](C)C1 (stereo partly drawn) [(2R,6S)-Fenpropimorph] | 173.5 Å² | – | 173.1 Å² | – | –
39 | CC1(C)CCC[C@]2(C)[C@H]3CC(=O)O[C@]3(C)CC[C@@H]12 [(3aR)-(+)-Sclareolide] | – | – | – | – | 181.5 Å²
40 | Nc1ccc([As](=O)(O)O)cc1 [(4-Aminophenyl)arsonic acid] | 130.9 Å² | 139 Å² | – | – | 144.9 Å²
41 | CCCCC[C@H](O)CC(=O)CCc1ccc(O)c(OC)c1 [(6)-Gingerol] | – | 169.5 Å² | – | – | 180.3 Å²
42 | CCCCCC[C@@H](O)C/C=C\CCCCCCCC(=O)O [(9Z,12R)-12-Hydroxyoctadec-9-enoic acid] | – | 178.6 Å² | – | – | 189.7 Å²
43 | CCOC(=O)[C@@H](O)[C@H](O)C(=O)OCC [(-)-Diethyl-D-tartrate] | – | – | – | – | 153.6 Å²

Row | SMILES | collision cross section in nitrogen [1] | collision cross section in nitrogen [2] | collision cross section in nitrogen [3] | collision cross section in nitrogen [4] | collision cross section in nitrogen [5]
44 | O=C1OC[C@H](Cc2cccc(O)c2)[C@H]1Cc1cccc(O)c1 [(-)-Enterolactone] | – | 165.3 Å² | – | – | 178.2 Å²
45 | O=C(O[C@@H]1Cc2c(O)cc(O)cc2O[C@@H]1c1cc(O)c(O)c(O)c1)c1cc(O)c(O)c(O)c1 [(-)-Epigallocatechin gallate] | – | – | – | – | 212.4 Å²
46 | CN1CCC[C@H]1c1cccnc1 [(-)-Nicotine] | 137.2 Å² | – | 136.5 Å² | – | –
47 | CNC[C@H](O)c1cccc(O)c1 [(-)-Phenylephrine hydrochloride] | – | 138.7 Å² | – | – | –
48 | C=C(C)C(=O)OCCOC1CC2CC1C1C=CCC21 (stereo unspecified) [(Dicyclopentadienyloxy)ethyl methacrylate] | – | – | – | – | 170.7 Å²
49 | O=C(N[C@H]1CN2CCC1CC2)c1cc2ccoc2cn1 [(R)-N-(Quinuclidin-3-yl)furo(2,3-C)pyridine-5-carboxamide] | 168 Å² | 172.1 Å² | 168.1 Å² | – | 181 Å²
50 | O=c1[nH]c(=O)n([C@H]2CCCO2)cc1F [(R)-Tegafur] | – | 142.2 Å² | – | – | –
51 | CCCCCCCC/C=C\CCCCCCCCN [(Z)-9-Octadecenylamine] | 180.2 Å² | – | – | – | –
52 | CCCC/C=C\CCCCCCCCCC=O [(Z)-11-Hexadecenal] | – | 163.6 Å² | – | – | –
53 | CCCCCC/C=C\CCCCCCCC(=O)O [(Z)-Hexadec-9-enoic acid] | – | 168.4 Å² | – | – | –
54 | O=C(NC(=O)c1cc(F)c(F)cc1Cl)Nc1cc(F)ccc1N1CCC(C(=O)O)CC1 [AVE2865] | 202.4 Å² | 196.2 Å² | 202.7 Å² | – | 195.9 Å²
55 | COP(=O)(NC(C)=O)SC (stereo unspecified) [Acephate] | – | 133.9 Å² | – | – | 141 Å²
56 | C/C(=N\C#N)N(C)Cc1ccc(Cl)nc1 [Acetamiprid] | 154.6 Å² | 149.1 Å² | 155.1 Å² | – | 157.7 Å²
57 | CNC(=O)ON=CC(C)(C)S(C)=O (stereo unspecified) [Aldicarb sulfoxide] | – | – | – | – | 147.4 Å²
58 | CNC(=O)ON=CC(C)(C)SC [Aldicarb] | – | – | – | – | 147.5 Å²
59 | C=CCO/N=C(\CCC)C1C(=O)CC(C)(C)C(C(=O)OC)C1=O (stereo unspecified) [Alloxydim sodium] | 175.7 Å² | 177.7 Å² | 175.7 Å² | – | 179.4 Å²
60 | CCNc1nc(NC(C)C)nc(SC)n1 [Ametryn] | 155.5 Å² | – | 155.2 Å² | – | –
61 | CNC(=O)Oc1ccc(N(C)C)c(C)c1 [Aminocarb] | 152.2 Å² | – | 151.6 Å² | – | 155.8 Å²
62 | CCC1(c2ccc(N)cc2)CCC(=O)NC1=O (stereo unspecified) [Aminoglutethimide] | – | 158.8 Å² | – | – | –
63 | COP(=S)(NC(C)C)Oc1ccc(C)cc1[N+](=O)[O-] (stereo unspecified) [Amiprofos-methyl] | – | 164.8 Å² | – | – | 172.4 Å²
